Values quoted from earlier work, collected in publication PMC2810227, “3-O-Methylfunicone, a Selective Inhibitor of Mammalian Y-Family DNA Polymerases from an Australian Sea Salt Fungal Strain” (Marine Drugs, 2009).

Tests used:
pol α = system: pol α; set-up: method as in PMID 467434; details: not competing with the other three deoxynucleoside triphosphates; cited from earlier work
[1] = system: family B pols, such as pols α, δ and ɛ; set-up: method as in PMID 467434; details: cited from earlier work

C[C@@]1(CO)[C@H](O)CC[C@@]2(C)[C@H]1CC[C@H]1C[C@@H]3C[C@@]12CC[C@]3(O)CO [aphidicolin]
mode of inhibition of pol α with respect to individual deoxynucleoside triphosphates (pol α): competing with dCTP
mode of inhibition with the DNA template-primer ([1]; activated DNA): uncompetitive
mode of inhibition with respect to the dNTP substrate [1]: competitive
